We go through nine compounds from ChEMBL document CHEMBL1122475, “Antidepressant activity of 5-aryl-2,3,5,6-tetrahydroimidazo[2,1-a]isoquinolin-5-ols” (1983).

SMILES strings stand for the structures. The source made the active and inactive calls. No cut-off for these calls is given here. Where only a bound is given, the exact number is not on record here.

The test system of test [1] is Mus musculus. Briefly: Dose required to induce hypersensitivity in mice (ip). Type of test: functional.
Test [2] deals with Mus musculus. As to the kind of experiment: Minimal dose required to induce in mice straub tail (ip). Type of test: functional.
The test system of test [3] is Mus musculus. Briefly: Minimal dose required to induce hyperaesthesia in mice (ip). Format: functional.
Test [4] deals with Mus musculus. As to the kind of experiment: Dose at which 50% convulsions occurred in mice (ip). Type of test: functional.
Test [5] deals with Mus musculus. Briefly: Lethal dose by i.p. administration. Format: functional. The settings on record: ip.
Test [6] relates to Mus musculus. As to the kind of experiment: Minimal dose required to cause aggressiveness in mice after ip administration; not active at a dose of 12.5 mg/kg. More on the design: dose 12.5 mg/kg. Format: functional, organism-based.
In test [7] the test system is Mus musculus. As to the kind of experiment: Inhibition of reserpine (5 mg/kg i.p.) induced hypothermia in mice 4 hr after i.p. administration. Type of test: functional. The settings on record: ip.
The subject of test [8] is Mus musculus. Briefly: Inhibition of reserpine (5 mg/kg i.p.) induced hypothermia in mice 2 hr after i.p. administration. Type of test: functional. Conditions: ip.
Test [9] concerns Mus musculus. As to the kind of experiment: Dose required to induce hyperactivity in mice (ip); not active at a dose of 12.5 mg/kg. Type of test: functional, organism-based. Further details: dose 12.5 mg/kg.
Test [10] concerns Mus musculus. Briefly: Minimal dose required to cause piloerection in mice after ip administration. Type of test: functional.
For test [11], the system named is Mus musculus. As to the kind of experiment: Minimal dose required to induce in mice exophthalmus (ip). Format: functional.
Test [12] relates to Felis catus. As to the kind of experiment: Compound tested to induce facilitation of monosynaptic spikes in spinal ventral root by stimulation of the dorsal root (DR-VR) after iv administration in cats; 0.3-1.0. Format: functional.
For test [13], the system named is Mus musculus. Briefly: Dose required to induce hyperactivity in mice (ip); not active at a dose of 50.0 mg/kg. Type of test: functional, organism-based. More on the design: dose 50 mg/kg.
Test [14] deals with Mus musculus. Briefly: Minimal dose required to cause aggressiveness in mice after ip administration; not active at a dose of 50.0 mg/kg. Further details: dose 50 mg/kg. Format: functional, organism-based.
Test [15] deals with Mus musculus. Briefly: Minimal dose required to induce in mice straub tail (ip); not active at a dose of 50.0 mg/kg. Type of test: functional, organism-based. More on the design: dose 50 mg/kg.
The subject of test [16] is Mus musculus. As to the kind of experiment: Dose required to induce hypersensitivity in mice (ip); not active at a dose of 50.0 mg/kg. Format: functional, organism-based. Further details: dose 50 mg/kg.
Test [17] concerns Mus musculus. Briefly: Dose required to induce hyperactivity in mice (ip); not active at a dose of 25.0 mg/kg. Format: functional, organism-based. Further details: dose 25 mg/kg.
Test [18] concerns Mus musculus. As to the kind of experiment: Minimal dose required to induce in mice straub tail (ip); not active at a dose of 25.0 mg/kg. Format: functional, organism-based. Further details: dose 25 mg/kg.
The test system of test [19] is Mus musculus. As to the kind of experiment: Minimal dose required to induce hyperaesthesia in mice (ip); not active at a dose of 25.0 mg/kg. Type of test: functional, organism-based. More on the design: dose 25 mg/kg.
Test [20] relates to Mus musculus. As to the kind of experiment: Minimal dose required to induce in mice exophthalmus (ip); not active at a dose of 25.0 mg/kg. Format: functional, organism-based. Further details: dose 25 mg/kg.
Test [21] concerns Mus musculus. Briefly: Minimal dose required to cause aggressiveness in mice after ip administration; not active at a dose of 25.0 mg/kg. Type of test: functional, organism-based. Further details: dose 25 mg/kg.
Test [22] concerns Mus musculus. Briefly: Minimal dose required to cause piloerection in mice after ip administration; not active at a dose of 25.0 mg/kg. Type of test: functional, organism-based. Further details: dose 25 mg/kg.
The subject of test [23] is Mus musculus. As to the kind of experiment: Dose required to induce hypersensitivity in mice (ip); not active at a dose of 25.0 mg/kg. More on the design: dose 25 mg/kg. Format: functional, organism-based.
The subject of test [24] is Mus musculus. Briefly: Minimal dose required to induce in mice exophthalmus (ip); not active at a dose of 50.0 mg/kg. Format: functional, organism-based. More on the design: dose 50 mg/kg.
Test [25] has as its system Mus musculus. Briefly: Minimal dose required to cause piloerection in mice after ip administration; not active at a dose of 50.0 mg/kg. Further details: dose 50 mg/kg. Format: functional, organism-based.
Test [26] relates to Mus musculus. Briefly: Minimal dose required to cause aggressiveness in mice after ip administration; not active at 12.5 mg/kg. Format: functional, organism-based. More on the design: dose 12.5 mg/kg.
For test [27], the system named is Mus musculus. Briefly: Minimal dose required to cause piloerection in mice after ip; not active at 12.5 mg/kg. Format: functional, organism-based. Further details: dose 12.5 mg/kg.
The test system of test [28] is Mus musculus. Briefly: Dose required to induce hypersensitivity in mice (ip); not active at 12.5 mg/kg. Type of test: functional, organism-based. Further details: dose 12.5 mg/kg.
The test system of test [29] is Mus musculus. Briefly: Minimal dose required to induce in mice straub tail (ip); not active at 12.5 mg/kg at 12.5 mg/kg. Type of test: functional, organism-based.
Test [30] deals with Mus musculus. Briefly: Minimal dose required to induce in mice exophthalmus (ip); not active at 12.5 mg/kg at 12.5 mg/kg. Format: functional, organism-based.
The test system of test [31] is Mus musculus. As to the kind of experiment: Dose required to induce hyperactivity in mice (ip). Type of test: functional.

The ED50 is the dose that gives a 50% effect, or the effect in half of the subjects. The LD50 is the dose at which mortality reaches 50%. A lower LD50 goes with greater toxicity. With `OC1(c2ccc3c(c2)OCO3)Cc2ccccc2C2=NCCN21` (centres undefined), the 50% effective dose (ED50) in test [1] came out at 12.5 mg/kg; in test [7], 0.5 mg/kg; in [8], 0.1 mg/kg. The MD was determined as 4.7 mg/kg in [2], 4.7 mg/kg in [3], 9.4 mg/kg in test [10] and 4.7 mg/kg in [11]. Besides, the CD50 in [4] came out at 18.8 mg/kg. The LD50 in test [5] was 10.2 mg/kg. Further, the MD result in [6] was “inactive”. The ED50 result in [9] is “inactive”.
On to `OC1(c2cccc(Cl)c2)Cc2ccccc2C2=NCCN21` (centres undefined), for which the CD50 in test [4] was found to be 37.5 mg/kg. The same compound registered an LD50 in test [5] of 37.5 mg/kg. The ED50 was determined as 11.5 mg/kg in [7] and 2.1 mg/kg in test [8].
The compound `OC1(c2cccc(C(F)(F)F)c2)Cc2ccccc2C2=NCCN21` (centres undefined) came in with an Activity in test [12] of 0.3 mg/kg. Further, the ED50 result in test [13] and in [16] was “inactive” throughout. Further, the MD entry in [14] and in test [15] was “inactive” each time. Also, the MD in [3], in [10] and in [11] was 37.5 mg/kg throughout. For the same compound, the CD50 in test [4] came to 75 mg/kg. The LD50 in test [5] was found to be 50 mg/kg. The ED50 in test [7] was above 25.6 mg/kg; in test [8], 1.9 mg/kg.
Compound `OC1(c2ccccc2F)Cc2ccccc2C2=NCCN21` (centres undefined) showed an LD50 in [5] of 35.5 mg/kg. For the same compound, the ED50 in [7] was above 11.5 mg/kg; in [8], 5.1 mg/kg.
Consider `OC1(Cc2ccccc2)Cc2ccccc2C2=NCCN21` (centres undefined), for which the ED50 in test [1] was 25 mg/kg; in test [7] it was above 25.6 mg/kg; in test [8], 5.9 mg/kg. Moreover, the ED50 entry in [17] is “inactive”. Also, the MD result in [18], in test [19], in test [20], in test [21] and in test [22] was “inactive” in each case. Besides, the CD50 in test [4] came out at 37.5 mg/kg. This compound showed an LD50 in test [5] of 37.5 mg/kg.
As for `OC1(c2ccccc2Cl)Cc2ccccc2C2=NCCN21` (centres undefined), the MD was determined as 25 mg/kg in test [2], 18.8 mg/kg in test [3] and 9.4 mg/kg in [11]. In addition, the ED50 entry in test [17] and in [23] was “inactive” each time. This compound returned a CD50 in test [4] of 37.5 mg/kg. For the same compound, the LD50 in [5] stood at 34.4 mg/kg. In addition, the MD entry in test [21] and in [22] was “inactive” each time. For the same compound, the ED50 in [7] was 11.5 mg/kg; in test [8] it was 6.1 mg/kg.
As for `COc1ccc(C2(O)Cc3ccccc3C3=NCCN32)cc1` (centres undefined), the ED50 in test [1] is 50 mg/kg; in [7], 25.6 mg/kg; in [8] it was 8.4 mg/kg. Also, the MD in [2] came to 18.8 mg/kg; in test [3], 37.5 mg/kg; in test [10] it was 37.5 mg/kg; in test [11], 18.8 mg/kg. Further, the ED50 entry in test [13] was “inactive”. In addition, the MD result in test [14] is “inactive”. Moreover, the CD50 in test [4] was 37.5 mg/kg. The compound further came in with a 50% lethal dose (LD50) in test [5] of 138 mg/kg.
With `Cc1ccc(C2(O)Cc3ccccc3C3=NCCN32)cc1` (centres undefined), the ED50 in [1] is 37.5 mg/kg; in [7] it was above 25.6 mg/kg; in test [8] it was above 25.6 mg/kg. Also, the MD in test [2] and in test [3] was 37.5 mg/kg each time. Besides, in test [13], the ED50 result was “inactive”. In addition, the MD result in test [14], in test [24] and in test [25] was “inactive” in each case. In [4], the CD50 amounted to 75 mg/kg. For the same compound, the LD50 in test [5] worked out at 84.1 mg/kg.
As for `OC1(c2ccccc2)Cc2ccccc2C2=NCCN21` (centres undefined), the MD entry in [26], in [27], in test [29] and in test [30] was “inactive” in each case. This compound displayed an MD in [3] of 9.4 mg/kg. Also, the LD50 in test [5] is 37.5 mg/kg. Besides, the ED50 result in [28] is “inactive”. Further, the results for the ED50 in test [7], in [31] and in test [8] were above 9.4 mg/kg, 12.5 mg/kg and 5 mg/kg, respectively.
